The subject of data set [1] is colon cancer cell line HT29. Briefly: MTT-based cytotoxicity / proliferation assay, HT29. In kind it is cell-based, human. As to the method:
(§1) The cytotoxicity of P4N against Vero cells and human cancer cells HEP3B, HT29 and MCF7 was analyzed using an MTT [3-(4,5-dimethylthiazol-2-yl)-2,5-diphenyltetrazolium bromide]-based assay (Sigma). The absorbance of OD570 was a measurement of formazon crystals solubilized in DMSO from metabolically active cells. Procedures were discussed in Huang R C C, et al. in Antiviral Res 58, 57-64 2003.^10
(§2) We have previously shown that M4N arrests tumor cells growth at G2-M phase of the cell cycle by reducing the level of Cdc2 protein and kinase activity,^17,18 and induces apoptosis by suppressing survivin gene expression and protein stability and activating the mitochondrial apoptosis pathway.^17 M4N is able to reverse the multidrug resistance by inhibiting the Sp1-regulated MDR1 gene expression and preventing the synthesis of p-glycoprotein (Pgp).^24 To investigate the effect of water soluble NDGA derivative P4N on growth of the transformed cells, four cell lines, Vero cell (African green monkey kidney cells), human liver cancer line Hep3B, colon cancer cell line HT29, and human breast cancer line MCF-7 were selected for testing. The Vero cell line is aneuploid.

In a further data set the test system is HSV-2. Briefly: Efficacy against HSV-2 in a mouse vaginal model. In kind it is in vivo. Conditions: for Toxicity in animals: female mice treated locally with 10 mM. As to the method:
The efficacies of P4N against HSV-2 in a mouse vaginal model system have been examined. Progestin treated female CF-1 mice (10 per group) were infected with HSV-2 in the absence or presence of P4N (in PBS). At the end of three days, the vaginal lavages were collected from the washings of the vaginal regions. The status of the vaginal HSV-2 infection and replication were examined by their cytopathic effects on cultured human foreskin fibroblast cells. Monitoring and scoring were carried out by three persons independently. […] At 10 mM concentration only 2 of 10 mice were weakly infected.

The subject of data set [2] is Vero cell (African green monkey kidney cells). The data set is described as follows: MTT-based cytotoxicity / proliferation assay, Vero. In kind it is cell-based. Particulars: 48 hrs, 37° C. Here is the method: as §1, §2
The subject of data set [3] is HIV Tat-regulated transactivation. Briefly: cells. In kind it is cell-based. Particulars: for Inhibition (%) of HIV Tat-regulated Transactivation in COS Cells: average of three experiments. As to the method:
The COS cells were co-transfected with a Tat-producing plasmid and a plasmid containing the HIV LTR linked to the SeAP reporter gene. Transfected cells were treated with various concentrations of 5b P4N. After 48 h, aliquots of media were removed and analysis of SeAP activity was performed. The percent inhibition of SeAP activity by 5b P4N ? was calculated in comparison with the percent of growth inhibition of untransfected COS cells by P4N ?
The medium used for dilution of compounds and maintenance of cultures during the assay was the same as described above. Cultures were maintained in disposable tissue culture labware at 37° C. in a humidified atmosphere of CO2 (5.0%) in air. Compounds were dissolved as stock solutions in water or dimethyl sulfoxide (DMSO) at the concentration of 10 mM. The stock solutions were diluted with H2O (5a-d) or DMSO (6a,b and 7) and dilute by medium to the desired concentration by a 30-s vortex just before addition into the cell culture. Triplicate cell samples were seeded at density of ˜1.5×10^4 cell per well in Libro 24-well flat-bottom culture dishes (17-mm diameter), which were incubated for 24 h until they reached 50% confluence. The cells were cotransfected by the calcium phosphate procedure with DNA from plasmids pBC12/CMV/t2 (coding for Tat function, 0.20 μg/well) and pBC12/HIV/SeAP (0.40 μg/well). Cells and DNAs were kept in contact for 6.0 h; then the medium was aspirated and replaced by 500 μL of medium containing the test compound. The compound-treated cells were then incubated for additional 48 h. At the end of incubation, an aliquot of cell culture medium was removed and SeAP activities were analyzed by spectrametric method.^20 The sample of culture medium were heated at 65° C. for 5.0 min to inactivate endogenous phosphatases selectively (SeAP is thermal stable). The buffer solution of 2×SeAP (100 μL, 1.0 M diethanolamine, pH 9.8; 0.50 mM MgCl2; 10 mM L-homoarginine) was added to the culture medium sample (100 μL) in a 96-well flat-bottom culture dish (Corning). Then, the substrate solution ([…], 120 mM, p-nitrophenyl phosphate dissolved in 1×SeAP buffer) was dispensed into each well containing the reaction mixture. The absorbance at wavelength 405 nm specific for the hydrolysis product was read at 2.5 min intervals at 37° C. over the course of 60 min on an EL340i microplate reader (Bio-tek Instruments) with 5 s automatic shaking before each reading.
Two plasmid constructs^19 were used to test the effect of synthesized NDGA derivatives on Tat-regulated HIV transactivation as described previously.^12,13,19 The plasmid constructs included a cytomegalovirus (CMV) promoter driven tat gene and SP1 regulated HIV LTR promoter driven reporter gene (i.e., SeAP). A standard SeAP assay in the absence of drug was initially run to find out efficiency of transfection.

For data set [4], the system named is human breast cancer line MCF-7. Briefly: MTT-based cytotoxicity / proliferation assay, MCF-7. In kind it is cell-based. Here is the method:
as §1, §2

Data set [5] in a line: Stability in aqueous solution (time dependent UV spectra). In kind it is physicochemical. Conditions: HCl salts, 28 days at 20° C., FIG. 1. As to the method:
FIG. 1: Stability of Two NDGA Derivatives G4N and P4N(HCl salts) in Aqueous Solution. Time Dependent Changes in UV spectra showing (a) G4N is unstable and (b) meso-2,3-dimethyl-1,4-bis(3,4-[2-piperidino)ethoxyphenyl])butane (P4N) (compound 5b in Scheme 1) (day 1, 2, 8, 13, 28) is stable in Milli-Q water after 28 days at 20° C.
The new NDGA derivatives (Scheme 1) were found stable in aqueous solution; >99% of these compounds remained intact after 28 days (see FIG. 1(b)). In a sharp contrast, >96% G4N (4) decomposed in aqueous solution within 24 h (see FIG. 1(a)).

Counter-ions that a name gives are not always drawn.

`C[C@H](Cc1ccc(OCCN2CCCCC2)c(OCCN2CCCCC2)c1)[C@@H](C)Cc1ccc(OCCN2CCCCC2)c(OCCN2CCCCC2)c1` [Compound 5b, meso-2,3-Dimethyl-1,4-bis(3,4-[2-(piperidino)ethoxyphenyl])butane Tetrakishydrochloride Salt]: the IC50 in data set [1] (48 hrs, 37° C., read-out: IC50, proliferation of HT-29) is 800 nM; in data set [3] (COS cells, SeAP, mean of triplicate determinations, read-out: IC50, HIV Tat-regulated transactivation), 880 nM; in data set [4] (48 hrs, 37° C.), 1400 nM. Besides, the “Concentration that effectively eliminates growth of tumor cells” value in data set [1] (HT29, FIG. 11) is below 5 µM; in data set [4] (MCF-7, FIG. 11), below 5 µM. In addition, in the data set with HSV-2 (10 mM P4N in PBS, local, female CF-1 mice, 10 per group, day 3 vaginal lavage), the “Mice weakly infected with HSV-2” value is reported as 2 of 10. For the same molecule, the “Average scale of vaginal HSV-2 infection (cytopathic effect score)” value with HSV-2 (10 mM P4N, 2.43 in the absence of P4N) was 0.19. The Toxicity in animals result was “no apparent sign of toxicity” in the data set with HSV-2 and “little or no toxicity” with HSV-2 (listed as P4N). In addition, in data set [2] (FIG. 11), the “Inhibition of rapidly dividing Vero cells” value is listed as “extremely effective”. Moreover, the “Inhibition of stationary phase vero cells” value in data set [2] (FIG. 11A) is “much less so”. Besides, the “Inhibition (%) of HIV Tat-regulated Transactivation in COS Cells” value in data set [3] (0.10 μM) is reported as 8.7%; in data set [3] (0.25 μM), 4.3%; in data set [3] (0.50 μM), 29.0%; in data set [3] (1.0 μM), 56.8%; in data set [3] (2.5 μM), 90.6%; in data set [3] (5.0 μM) it was 97.0%. Further, the “Inhibition (%) of HIV Tat-regulated Transactivation in COS Cells” value in data set [3] (10 μM) worked out at 99.8%; in data set [3] (20 μM), 100%; in data set [3] (40 μM), 100%; in data set [3] (80 μM), 100%; in data set [3] (100 μM), 97.7%. In addition, the “HIV transactivation at the concentration without effect on cos cell growth” value in data set [3] (≦1 μM, FIG. 9) is “fully inhibited”. In data set [5], the “Stability in Milli-Q water (UV spectra)” value is given as “stable”.
